Each structure is given as a SMILES string. Activity calls are given as the source filed them.

For one assay, the target named is Melanocortin receptor 4 (Homo sapiens, UniProt P32245). The class given is functional, cell-based.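 Note: Cell-based assay with luminescence read-out, confirmatory dose-response testing for agonist activity of biased ligands at MC4R; human U2OS cells with tagged receptor and beta-arrestin; potency of agonists that increase receptor coupling to beta-arrestin.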
In a further assay the target is Protein Rev (Human immunodeficiency virus type 1 group M subtype B (isolate HXB2)(HIV-1), UniProt P04618). Description: blockers of HIV Rev/RRE RNA complex – biochemical, fluorescence polarization, HIV-1, dose response (AID 434976). Set-up: species or system Human immunodeficiency virus 1.
Assay [1] concerns the target Female germline-specific tumor suppressor gld-1 (Caenorhabditis elegans, UniProt Q17339). Description: blockers of GLD-1/TGE RNA complex formation – biochemical, fluorescence polarization, C. elegans, dose response (AID 2802).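 Note: fluorescence polarization of labeled TGE RNA bound by purified gld-1 protein.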
Assay [2] deals with T1, Sentrin-specific protease 6 (Homo sapiens, UniProt Q9GZR1).
T1 sequence (Q9GZR1 whole entry): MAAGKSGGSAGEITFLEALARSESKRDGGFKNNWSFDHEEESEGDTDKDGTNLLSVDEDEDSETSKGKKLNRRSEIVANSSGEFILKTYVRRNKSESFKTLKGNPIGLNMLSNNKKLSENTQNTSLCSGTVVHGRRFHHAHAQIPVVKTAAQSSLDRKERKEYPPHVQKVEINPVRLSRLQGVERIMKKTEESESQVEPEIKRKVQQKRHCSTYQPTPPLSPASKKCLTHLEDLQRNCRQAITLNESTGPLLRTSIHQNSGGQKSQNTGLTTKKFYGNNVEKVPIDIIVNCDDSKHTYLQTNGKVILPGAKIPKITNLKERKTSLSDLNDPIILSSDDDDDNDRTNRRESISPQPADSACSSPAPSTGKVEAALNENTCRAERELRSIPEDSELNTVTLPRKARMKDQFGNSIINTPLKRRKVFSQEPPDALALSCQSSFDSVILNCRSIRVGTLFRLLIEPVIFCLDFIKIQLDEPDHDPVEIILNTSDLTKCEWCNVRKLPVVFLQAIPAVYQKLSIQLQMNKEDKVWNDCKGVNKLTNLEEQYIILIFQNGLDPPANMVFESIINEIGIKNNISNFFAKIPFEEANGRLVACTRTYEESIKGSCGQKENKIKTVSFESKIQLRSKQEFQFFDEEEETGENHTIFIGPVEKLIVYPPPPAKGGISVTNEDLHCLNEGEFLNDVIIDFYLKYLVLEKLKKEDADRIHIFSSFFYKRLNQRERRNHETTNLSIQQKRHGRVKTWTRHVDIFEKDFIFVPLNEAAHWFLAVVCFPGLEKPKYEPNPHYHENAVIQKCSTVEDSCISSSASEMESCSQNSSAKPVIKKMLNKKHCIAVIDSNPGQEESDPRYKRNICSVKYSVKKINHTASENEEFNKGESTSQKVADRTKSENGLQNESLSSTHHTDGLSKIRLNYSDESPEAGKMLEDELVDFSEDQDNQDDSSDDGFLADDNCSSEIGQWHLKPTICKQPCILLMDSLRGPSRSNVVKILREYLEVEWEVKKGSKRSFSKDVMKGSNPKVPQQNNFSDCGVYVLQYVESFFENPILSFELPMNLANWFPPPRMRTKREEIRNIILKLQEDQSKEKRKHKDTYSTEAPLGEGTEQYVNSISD
Description: SAR Analysis of small molecule inhibitors of Sentrin-specific protease 6 (SENP6) using a Luminescent assay. [Related pubchem assays (depositor defined):AID2582, AID2599]. Format: functional.

The target of assay [3] is Polyadenylate-binding protein 1 (Homo sapiens, UniProt P11940). Nature of the assay: MLLE domain peptide-binding blockers, IC50 – biochemical, fluorescence polarization, FITC-PAM2 peptide, dose response (AID 602259). The class given is functional. The following applies: read-out: IC50_Mean.
Assay [4] deals with BJ. Nature of the assay: BJ-TERT fibroblast viability loss – cell-based, RAS-independent, luminescence, dose response (AID 1933). The class given is functional. The following applies: Homo sapiens.
The nature of assay [5]: DRD fibroblast viability loss – cell-based, non-viral oncogenic, luminescence, dose response (AID 1934). Format: functional. The following applies: Homo sapiens.
The next assay has as its target Beta-galactosidase (Escherichia coli, UniProt Q8VNN2). Description: detection-enzyme interference by beta-gal modulators – biochemical, E. coli enzyme, set 3, artefact control for CCR6 antagonist project, dose response (AID 504712). The class given is functional.
Assay [6] in a line: HEK-293T viability loss after treatment – luminescence, T-cell screen hits, cytotoxicity control for TCR NF-kB inhibitor project, dose response (AID 489026).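 Note: cells exposed to compound about 14 hours before the viability readout.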 The class given is functional, cell-based.
Assay [7] concerns BJ. Description: growth inhibition of engineered Ras-driven BJ cells – cell-based, alamar blue fluorescence, cherrypicked samples, dose response (AID 2631).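 Note: confirmatory dose-response assay in RAS-dependent BJ fibroblasts engineered with TERT, LT and ST, with cytotoxicity read by fluorescence.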 The class given is functional. The following applies: Homo sapiens.
The target in assay [8] is T2, Mitochondrial peptide methionine sulfoxide reductase (Bos taurus, UniProt P54149).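 Note: absorbance read-out, biochemical high-throughput dose-response screen for MsrA inhibitors, confirmatory; recombinant bovine MsrA coupled to E. coli TrxB with NADPH and selenocystamine; potency is for inhibitors of MsrA activity on DMSO substrate.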
T2 sequence (P54149 whole entry): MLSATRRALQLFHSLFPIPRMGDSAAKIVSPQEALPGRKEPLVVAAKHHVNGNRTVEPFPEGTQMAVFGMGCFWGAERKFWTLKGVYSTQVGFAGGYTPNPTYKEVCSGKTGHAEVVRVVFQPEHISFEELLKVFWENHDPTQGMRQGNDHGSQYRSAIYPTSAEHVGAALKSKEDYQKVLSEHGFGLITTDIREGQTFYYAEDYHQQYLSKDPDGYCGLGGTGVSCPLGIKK
The class given is functional.

Assay [9] concerns the target T3, Rac GTPase-activating protein 1 (Homo sapiens, UniProt Q9H0H5).
T3 sequence (Q9H0H5 whole entry): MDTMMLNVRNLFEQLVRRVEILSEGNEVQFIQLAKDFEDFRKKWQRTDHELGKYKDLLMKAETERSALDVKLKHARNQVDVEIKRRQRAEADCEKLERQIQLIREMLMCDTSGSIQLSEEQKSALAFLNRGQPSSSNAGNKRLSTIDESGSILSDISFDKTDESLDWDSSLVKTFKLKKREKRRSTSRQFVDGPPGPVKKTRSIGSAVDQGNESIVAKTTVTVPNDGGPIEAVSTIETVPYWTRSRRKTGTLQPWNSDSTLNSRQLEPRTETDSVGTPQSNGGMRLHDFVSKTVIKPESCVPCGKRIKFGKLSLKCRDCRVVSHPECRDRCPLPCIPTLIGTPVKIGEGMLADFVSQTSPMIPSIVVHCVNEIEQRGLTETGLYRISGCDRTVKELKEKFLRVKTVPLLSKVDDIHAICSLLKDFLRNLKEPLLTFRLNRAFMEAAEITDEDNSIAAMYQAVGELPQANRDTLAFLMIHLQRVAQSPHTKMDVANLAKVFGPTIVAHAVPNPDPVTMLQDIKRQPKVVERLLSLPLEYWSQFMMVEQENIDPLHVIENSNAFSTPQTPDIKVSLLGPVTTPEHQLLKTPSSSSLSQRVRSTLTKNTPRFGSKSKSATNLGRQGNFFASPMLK
Description: blockers of MgcRacGAP-driven Rac1 GTP hydrolysis – biochemical, ADP Hunter fluorescence, primary and confirmatory, confirmation (AID 624330). The class given is functional.

The target in the next assay is SUMO-activating enzyme (Homo sapiens, UniProt Q9UBT2). Description: blockers of SAE1/SAE2–UBC9 SUMO transfer – biochemical, HTRF, uHTS, primary screen (AID 2006). The class given is protein-complex assay.
A short description of assay [10]: Trypanosoma cruzi growth suppression in host cells – NIH3T3 host cells, beta-gal luminescence, confirmation (AID 2044).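 Note: intracellular parasites grown in NIH/3T3 mouse fibroblasts as host cells; luminescent beta-galactosidase reporter signal from transgenic T. cruzi replicating inside host cells; inhibitors lower the luminescence signal.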 Format: functional, cell-based.
Assay [11] can be described thus: microbe, parasite or virus in culture. The class given is functional. The following applies: Mycobacterium tuberculosis.
Assay [12] can be described thus: Luminescence Cell-Based Dose Retest to Confirm Inhibitors of Cancer Stem Cells. [Related pubchem assays (depositor defined):AID2717, AID2721]. The class given is functional. The following applies: Homo sapiens.
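Throughout, for AC50: cells exposed to compound for roughly 70 hours or longer before luminescence read.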

Chain of Melanocortin receptor 4 (P32245 whole entry): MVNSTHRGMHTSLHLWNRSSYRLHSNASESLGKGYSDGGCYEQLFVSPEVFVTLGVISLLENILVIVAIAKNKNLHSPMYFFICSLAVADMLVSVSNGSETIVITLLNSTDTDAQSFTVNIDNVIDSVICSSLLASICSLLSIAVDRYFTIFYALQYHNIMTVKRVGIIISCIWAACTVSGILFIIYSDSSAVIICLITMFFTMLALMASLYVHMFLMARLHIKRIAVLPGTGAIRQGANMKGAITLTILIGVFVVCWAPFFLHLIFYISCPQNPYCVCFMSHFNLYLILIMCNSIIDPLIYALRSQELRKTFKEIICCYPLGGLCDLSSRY
Chain of SUMO-activating enzyme (Q9UBE0 whole entry): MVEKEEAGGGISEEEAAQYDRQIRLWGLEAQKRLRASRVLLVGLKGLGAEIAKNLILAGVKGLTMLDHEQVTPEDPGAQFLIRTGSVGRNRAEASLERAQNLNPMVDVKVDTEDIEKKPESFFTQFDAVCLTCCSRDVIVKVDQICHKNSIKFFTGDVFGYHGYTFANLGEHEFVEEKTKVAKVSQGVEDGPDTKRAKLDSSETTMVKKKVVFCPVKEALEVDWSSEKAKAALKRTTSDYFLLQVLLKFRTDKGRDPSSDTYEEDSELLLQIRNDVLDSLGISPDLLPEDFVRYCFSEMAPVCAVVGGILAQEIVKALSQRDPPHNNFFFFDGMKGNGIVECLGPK
Chain of SUMO-activating enzyme (Q9UBT2 whole entry): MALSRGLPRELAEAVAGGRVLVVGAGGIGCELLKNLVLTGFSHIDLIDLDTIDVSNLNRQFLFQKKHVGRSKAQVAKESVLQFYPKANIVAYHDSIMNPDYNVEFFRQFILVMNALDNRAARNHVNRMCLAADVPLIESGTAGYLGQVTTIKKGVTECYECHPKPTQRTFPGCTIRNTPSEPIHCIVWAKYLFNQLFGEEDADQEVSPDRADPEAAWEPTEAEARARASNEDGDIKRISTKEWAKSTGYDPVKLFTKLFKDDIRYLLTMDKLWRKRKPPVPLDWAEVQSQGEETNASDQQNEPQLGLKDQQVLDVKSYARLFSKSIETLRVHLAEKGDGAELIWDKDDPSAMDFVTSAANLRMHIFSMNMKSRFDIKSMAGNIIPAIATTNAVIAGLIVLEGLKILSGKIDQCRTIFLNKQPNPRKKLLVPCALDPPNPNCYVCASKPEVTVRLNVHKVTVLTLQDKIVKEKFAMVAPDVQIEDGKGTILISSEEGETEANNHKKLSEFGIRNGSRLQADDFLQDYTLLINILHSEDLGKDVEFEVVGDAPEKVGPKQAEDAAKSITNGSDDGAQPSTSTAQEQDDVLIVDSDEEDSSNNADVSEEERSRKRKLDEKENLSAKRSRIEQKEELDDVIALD
Chain of Female germline-specific tumor suppressor gld-1 (Q17339 whole entry): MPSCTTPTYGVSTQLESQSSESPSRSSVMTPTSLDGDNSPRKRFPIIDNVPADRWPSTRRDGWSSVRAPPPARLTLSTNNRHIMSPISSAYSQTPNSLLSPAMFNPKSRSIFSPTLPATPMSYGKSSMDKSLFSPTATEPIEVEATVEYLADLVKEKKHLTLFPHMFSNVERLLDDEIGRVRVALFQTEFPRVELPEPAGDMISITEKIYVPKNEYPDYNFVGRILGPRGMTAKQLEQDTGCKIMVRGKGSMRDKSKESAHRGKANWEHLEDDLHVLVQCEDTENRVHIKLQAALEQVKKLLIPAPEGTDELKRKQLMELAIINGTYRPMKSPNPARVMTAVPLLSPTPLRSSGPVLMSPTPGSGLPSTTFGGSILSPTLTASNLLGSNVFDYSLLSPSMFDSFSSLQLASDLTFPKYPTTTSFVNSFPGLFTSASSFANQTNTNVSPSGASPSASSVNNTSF
Chain of Polyadenylate-binding protein 1 (P11940 whole entry, the tested form may be a part): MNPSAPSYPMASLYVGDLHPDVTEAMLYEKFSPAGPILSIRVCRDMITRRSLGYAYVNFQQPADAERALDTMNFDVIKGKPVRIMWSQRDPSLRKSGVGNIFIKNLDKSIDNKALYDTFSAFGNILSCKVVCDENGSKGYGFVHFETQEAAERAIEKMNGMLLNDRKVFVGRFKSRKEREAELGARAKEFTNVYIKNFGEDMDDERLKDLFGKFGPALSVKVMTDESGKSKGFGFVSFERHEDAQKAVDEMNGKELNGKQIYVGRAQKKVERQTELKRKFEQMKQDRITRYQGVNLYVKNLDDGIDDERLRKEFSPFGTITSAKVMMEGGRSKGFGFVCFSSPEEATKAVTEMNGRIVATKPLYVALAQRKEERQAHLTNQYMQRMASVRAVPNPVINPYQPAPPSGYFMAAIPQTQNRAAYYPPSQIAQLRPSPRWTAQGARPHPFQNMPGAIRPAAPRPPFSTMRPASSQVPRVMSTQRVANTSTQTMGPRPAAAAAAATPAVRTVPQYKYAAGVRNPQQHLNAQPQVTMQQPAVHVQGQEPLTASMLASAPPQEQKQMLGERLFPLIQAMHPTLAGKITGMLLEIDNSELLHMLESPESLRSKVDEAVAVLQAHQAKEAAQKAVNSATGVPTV
Chain of Beta-galactosidase (Q8VNN2 whole entry): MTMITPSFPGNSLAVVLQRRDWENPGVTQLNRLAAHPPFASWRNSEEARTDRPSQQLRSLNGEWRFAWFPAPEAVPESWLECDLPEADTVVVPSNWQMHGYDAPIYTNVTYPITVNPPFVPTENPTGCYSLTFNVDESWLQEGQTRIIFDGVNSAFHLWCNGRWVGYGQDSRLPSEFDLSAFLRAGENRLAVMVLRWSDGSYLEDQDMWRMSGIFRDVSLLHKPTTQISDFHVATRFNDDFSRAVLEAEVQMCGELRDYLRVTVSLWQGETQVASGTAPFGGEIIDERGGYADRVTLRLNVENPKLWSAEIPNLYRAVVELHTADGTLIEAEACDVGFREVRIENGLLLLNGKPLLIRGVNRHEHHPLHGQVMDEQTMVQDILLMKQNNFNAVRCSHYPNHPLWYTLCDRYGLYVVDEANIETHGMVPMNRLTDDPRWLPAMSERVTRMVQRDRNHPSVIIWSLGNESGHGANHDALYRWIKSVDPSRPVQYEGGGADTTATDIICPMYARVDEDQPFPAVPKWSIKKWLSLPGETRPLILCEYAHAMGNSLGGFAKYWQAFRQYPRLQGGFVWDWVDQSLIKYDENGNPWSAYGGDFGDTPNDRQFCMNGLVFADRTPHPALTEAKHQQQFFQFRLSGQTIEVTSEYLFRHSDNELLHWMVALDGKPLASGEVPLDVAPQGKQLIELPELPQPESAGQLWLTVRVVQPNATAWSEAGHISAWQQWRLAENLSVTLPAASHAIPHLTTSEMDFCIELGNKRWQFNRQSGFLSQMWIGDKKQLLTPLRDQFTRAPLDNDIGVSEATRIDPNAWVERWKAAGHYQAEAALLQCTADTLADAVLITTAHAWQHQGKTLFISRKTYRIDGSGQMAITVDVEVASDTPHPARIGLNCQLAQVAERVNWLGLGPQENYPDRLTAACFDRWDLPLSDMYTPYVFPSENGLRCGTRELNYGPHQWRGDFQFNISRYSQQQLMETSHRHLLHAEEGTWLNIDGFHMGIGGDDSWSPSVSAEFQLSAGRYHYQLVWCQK
Chain of Protein Rev (P04618 whole entry): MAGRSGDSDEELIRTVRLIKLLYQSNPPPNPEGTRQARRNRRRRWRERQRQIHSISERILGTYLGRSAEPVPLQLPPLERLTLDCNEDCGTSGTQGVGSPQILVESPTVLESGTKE

In the case of `Cc1cccc(C)c1-n1cccc1/C=C1\SC(=S)N(c2cccc(C(=O)O)c2)C1=O`, the EC50 at Melanocortin receptor 4 was > 89.2 µM (inactive).

For `Oc1ccc(/C=N/Nc2cc(N3CCCC3)nc(N3CCCC3)n2)cc1`, the IC50 at Protein Rev is 1.36 µM (active); in assay [1], 2.75 µM (active); in [2], 18.1 µM (active); in [3], 34.4 µM (inactive).

With `COc1ccc(S(=O)(=O)/N=C2\C=C(Nc3ccc(O)cc3)C(=O)c3ccccc32)cc1`, the figures for the EC50 (in the assay with BJ [4]; in assay [5]; in the assay on BJ [7]) were 1.53 µM (active), 2.89 µM (active) and 0.507 µM (inconclusive), respectively. Further, the IC50 on Beta-galactosidase was 43 µM (inactive); in assay [6], 4.19 µM (active); in assay [8], 197 µM (inactive); in assay [9], 50.7 µM (active).

As for `COc1ccc(/C=N/Nc2cc(N3CCCC3)nc(N3CCCC3)n2)cc1`, the IC50 at SUMO-activating enzyme is 2.31 µM (active). For the same compound, in assay [10], the EC50 is 1.71 µM (active). Also, the CC50 in assay [11] was 20.3 µM (active). For the same compound, the AC50 in assay [12] is 3.71 µM (active).

The record behind these values is ChEMBL document CHEMBL1201862, “PubChem BioAssay data set” (2004).
